Measured values: the supplement of paper PMC11451515

Legend:
SEM cells [1] = experiment: AUC of viability dose-response curve (% viability x log10 dose units); higher = less sensitive; details: 48 h
Method in brief: (§1)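 Leukemia cells adapted to each medium were seeded in 1536-well plates (500 or 1000 cells/well). They were dosed with library compounds in DMSO at 11 threefold doses, 47 μM to 0.79 nM, for 48 h at 37°C. CellTiter-Glo One luminescence was normalised per plate to DMSO and cell-free wells. Area under the curve was integrated by trapezoidal rule over log10 doses on a four-parameter log-logistic fit; curves exceeding full viability were scaled and curves failing quality control removed.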

NOMO1 [2] = experiment: as above; details: 48 h
Method in brief: as §1

P12-Ichikawa = experiment: as above; details: 48 h
Method in brief: as §1

SEM cells [3] = experiment: cell viability relative to DMSO control; higher = less cytotoxic; details: 48 h
Method in brief: (§2)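 Library compounds in DMSO were pin-dosed into 1536-well plates (5 μl) holding NOMO1 or SEM (500 cells/well) or P12-Ichikawa (1000 cells/well) leukemia cells, across an 11-point threefold series of 47 μM to 0.79 nM. Each cell line had been adapted for at least four passages in each medium. CellTiter-Glo One luminescence was read after 48 h at 37°C. Viability is the per-plate percentage relative to DMSO wells, with cell-free wells as background.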

NOMO1 [4] = experiment: as above; details: HPLM + 10% dialyzed FBS, 48 h
Method in brief: as §2

CN(C)C(=N)NC(=N)N
AUC of viability dose-response curve
Details	NOMO1 [2]	P12-Ichikawa	SEM cells [1]
HPLM + 10% dialyzed FBS	437	442	436
RPMI 5 mM glucose + 10% FBS	446	460	393
RPMI 5 mM glucose + 10% dialyzed FBS	451	457	426

SEM cells [3], RPMI 5 mM glucose + 10% FBS
Details	cell viability [%]
0.000781 µM	110
0.00234 µM	122
0.00702 µM	116
0.0211 µM	132
0.0632 µM	152
0.19 µM	154
0.569 µM	156
1.71 µM	110
5.12 µM	62.4
15.4 µM	56.6
46.1 µM	17.8

COC(=O)Nc1nc2cc(C(=O)c3ccccc3)ccc2[nH]1
AUC of viability dose-response curve
Details	HPLM + 10% dialyzed FBS	RPMI 5 mM glucose + 10% FBS	RPMI 5 mM glucose + 10% dialyzed FBS
NOMO1 [2]	401	389	397
SEM cells [1]	303	286	291

cell viability [%], SEM cells [3]
Details	HPLM + 10% dialyzed FBS	RPMI 5 mM glucose + 10% FBS
0.000781 µM	115	120
0.00234 µM	124	125
0.00702 µM	130	125
0.0211 µM	126	122
0.0632 µM	100	96.4
0.19 µM	24.4	18
0.569 µM	69.6	59.3
1.71 µM	128	86.8
5.12 µM	26.6	22.6
15.4 µM	24.1	23.4
46.1 µM	24.1	19.2

C[C@]\12CC[C@H](O)CC1=C/C[C@@H]3[C@@H]2CC[C@@]\4(C)[C@H]3C\C=C4C5=CN=CC=C5
AUC of viability dose-response curve
Details	NOMO1 [2]	P12-Ichikawa	SEM cells [1]
HPLM + 10% dialyzed FBS	472	468	469
RPMI 5 mM glucose + 10% FBS	472	460	456
RPMI 5 mM glucose + 10% dialyzed FBS	454	459	469

CCN1\C=C(\C(O)=O)C(=O)C2=C1C=C(N3CCNCC3)C(=C2)F
AUC of viability dose-response curve
Details	NOMO1 [2]	P12-Ichikawa	SEM cells [1]
HPLM + 10% dialyzed FBS	430	456	385
RPMI 5 mM glucose + 10% FBS	465	433	392
RPMI 5 mM glucose + 10% dialyzed FBS	455	449	404

cell viability [%], SEM cells [3]
Details	HPLM + 10% dialyzed FBS	RPMI 5 mM glucose + 10% dialyzed FBS
0.000781 µM	95	117
0.00234 µM	130	124
0.00702 µM	125	125
0.0211 µM	136	129
0.0632 µM	116	108
0.19 µM	59.4	48.3
0.569 µM	112	114
1.71 µM	77.9	104
5.12 µM	90.6	98
15.4 µM	59.8	101
46.1 µM	78.8	77.8

O=C(/C=C\n1cnc(-c2cc(C(F)(F)F)cc(C(F)(F)F)c2)n1)NNc1cnccn1
AUC of viability dose-response curve
Details	HPLM + 10% dialyzed FBS	RPMI 5 mM glucose + 10% FBS	RPMI 5 mM glucose + 10% dialyzed FBS
P12-Ichikawa	302	296	295
SEM cells [1]	310	301	309

CC(=O)O[C@@]1(CC[C@H]2[C@@H]3\C=C(Cl)/C4=C/C(=O)[C@@H]5C[C@@H]5[C@]4(C)[C@H]3CC[C@]12C)C(C)=O
Details	AUC of viability dose-response curve	cell viability [%]
NOMO1 [2], HPLM + 10% dialyzed FBS	364	–
NOMO1 [2], RPMI 5 mM glucose + 10% FBS	322	–
NOMO1 [2], RPMI 5 mM glucose + 10% dialyzed FBS	360	–
NOMO1 [4], 0.000781 µM	–	95.1
NOMO1 [4], 0.00234 µM	–	124
NOMO1 [4], 0.00702 µM	–	140
NOMO1 [4], 0.0211 µM	–	137
NOMO1 [4], 0.0632 µM	–	133
NOMO1 [4], 0.19 µM	–	135
NOMO1 [4], 0.569 µM	–	114
NOMO1 [4], 1.71 µM	–	66.4
NOMO1 [4], 5.12 µM	–	36
NOMO1 [4], 15.4 µM	–	38.5
NOMO1 [4], 46.1 µM	–	34.5
SEM cells [1], HPLM + 10% dialyzed FBS	464	–
SEM cells [1], RPMI 5 mM glucose + 10% FBS	450	–
SEM cells [1], RPMI 5 mM glucose + 10% dialyzed FBS	442	–

cell viability [%], SEM cells [3]
Details	HPLM + 10% dialyzed FBS	RPMI 5 mM glucose + 10% FBS
0.000781 µM	111	115
0.00234 µM	120	115
0.00702 µM	126	126
0.0211 µM	125	119
0.0632 µM	131	118
0.19 µM	130	144
0.569 µM	128	128
1.71 µM	131	116
5.12 µM	136	120
15.4 µM	134	135
46.1 µM	127	135

OC[C@H]1O[C@@H](OCCc2ccc(O)cc2)[C@H](O)[C@@H](O)[C@@H]1O
AUC of viability dose-response curve
Details	NOMO1 [2]	P12-Ichikawa	SEM cells [1]
HPLM + 10% dialyzed FBS	459	435	447
RPMI 5 mM glucose + 10% FBS	458	456	432
RPMI 5 mM glucose + 10% dialyzed FBS	464	461	419

N#Cc1ccc(COC[C@H]2O[C@@H](n3c(NCc4ccc(Cl)c(Cl)c4)nc4c(N)ncnc43)[C@H](O)[C@@H]2O)cc1
AUC of viability dose-response curve
Details	NOMO1 [2]	P12-Ichikawa	SEM cells [1]
HPLM + 10% dialyzed FBS	420	458	465
RPMI 5 mM glucose + 10% FBS	428	414	411
RPMI 5 mM glucose + 10% dialyzed FBS	420	415	431

Cc1cc(Nc2cc(NC(=O)c3c(Cl)cccc3Cl)ccn2)nc(N)n1
AUC of viability dose-response curve
Details	NOMO1 [2]	P12-Ichikawa	SEM cells [1]
HPLM + 10% dialyzed FBS	373	364	368
RPMI 5 mM glucose + 10% FBS	391	364	391
RPMI 5 mM glucose + 10% dialyzed FBS	359	346	341

SEM cells [3], HPLM + 10% dialyzed FBS
Details	cell viability [%]
0.000781 µM	112
0.00234 µM	123
0.00702 µM	126
0.0211 µM	124
0.0632 µM	128
0.19 µM	128
0.569 µM	113
1.71 µM	61.3
5.12 µM	40.9
15.4 µM	37.9
46.1 µM	40.2

COc1ccc(-c2ccc3c(N4CCOCC4)nc(N4C[C@@H](C)O[C@@H](C)C4)nc3n2)cc1CO
AUC of viability dose-response curve
Details	NOMO1 [2]	P12-Ichikawa	SEM cells [1]
HPLM + 10% dialyzed FBS	304	336	343
RPMI 5 mM glucose + 10% FBS	372	301	342
RPMI 5 mM glucose + 10% dialyzed FBS	353	326	356
